Assay results as given in US9358247B2, “Methods and compositions for promoting activity of anti-cancer therapies” (Oncology Research International Limited, priority 2006, dated 2016).
Read-outs that look alike come from different tables or passages of the source.

Assays:
[1] = test system: PC3, DU145, A549 and HT29 cell lines; assay: Cancer cell growth inhibition, IC50 values used in assay for four cell lines (Example 5); type: cell-based, human; conditions: value used to make up 50:50 IC50 mixtures
Protocol: (§1) Tumour cells were seeded in duplicate in 96-well plates at 2-5,000 per microtitre well containing RPMI culture medium/10% foetal calf serum. The cells were allowed to grow until the controls were nearly confluent after 5-6 days. Plates were then washed with PBS, fixed in ethanol and stained with 50 μL/well of SRB solution (sulforhodamine, 0.4% in 1% acetic acid), followed by washing with 1% acetic acid and solubilisation in Tris. The absorbance was read at 564 nm using an ELISA reader.
(§2) The IC50, or concentration required to inhibit cell growth by 50%, was determined from the percentage inhibition versus concentration data using the probit calculation methods of Finney (Finney D J (1971). Probit Analysis. 3rd Edition. Cambridge University Press).
The cell seeding and ELISA plate methodology of Example 2 were used for determining inhibition of four cancer cell lines. IC50 values were determined for the steroid saponins dioscin, deltonin and prosapogenin A, and their mixtures with cisplatin, docetaxel, doxorubicin and vincristine, using PC3, DU145, A549 and HT29 cell lines.

K562 cell line = assay: Cancer cell growth inhibition, SRB dye assay (single agents and 50:50 IC50 mixtures); type: cell-based, human
Protocol: (§3) Cancer cells were seeded the day before application of drug in triplicate or quadruplicate in 96-well plates, allowed to grow in the presence of drug for 6 days before cell growth relative to untreated control wells was determined with a dye assay.
(§4) Cells were seeded in triplicate or quadruplicate at 3-4,000 per microtitre well in 90 μl of RPMI culture medium/10% foetal calf serum/penicillin, streptomycin mix, treated with 10 μl of drug (prepared in a dilution plate at 10× concentration required), and allowed to grow until the controls were nearly confluent (6 days).
(§5) SRB: Plates were washed with PBS, fixed with methylated spirits, washed with tap water and stained with 50 μL/well of SRB solution (sulforhodamine, 0.4% in 1% acetic acid), followed by washing with tap water and 1% acetic acid, solubilisation in Tris and absorbance read at 564 nm in an ELISA reader.
(§6) Data was collected using ELISA plate reader software—SOFTmax PRO3.1.2, then imported into EXCEL. The mean and SD of replicates were calculated as a % of control, after subtraction of the blank value (wells with no cells). A graph was plotted of % control vs dose of agent and IC50 (half maximal inhibitory concentration) values determined.
as §1, §2
(§7) The inhibitory data from each mixture was used to determine an IC50 of IC50 value, where the concentrations used were the Multiplying Factor values. In order to determine the actual IC50 contribution of each component in the two-component mixture, the IC50 of IC50 value was multiplied by the IC50 of the individual component. This can then be used to determine the reduction in IC50 contribution (ie, reduction in dose) of the chemotherapeutic agent due to the presence of the steroid saponin in the mixture. A simpler way of determining the reduction in dose is to use the following simple formula: […]
The cell seeding and ELISA plate methodology of Example 2 were used for determining inhibition of the K562 cell line.

HT29 cell line = assay: as above; type: cell-based, human; conditions: single agent, Example 2
Protocol: as §3, §4, §5, §6, §1, §2, §7

PC3 cell line = assay: as above; type: cell-based, human; conditions: single agent, Example 2
Protocol: as §3, §4, §5, §6, §1, §2, §7

DU145 cell line = assay: as above; type: cell-based, human; conditions: single agent, Example 2
Protocol: as §3, §4, §5, §6, §1, §2, §7

A549 cell line = assay: as above; type: cell-based, human
Protocol: as §3, §4, §5, §6, §1, §2, §7

LNCap cell line = assay: as above; type: cell-based, human; conditions: for Vincristine Dose Reduction: 50:50 IC50 mixture vs vincristine alone, Example 3
Protocol: (§8) Cancer cells were seeded the day before application of drug in triplicate or quadruplicate in 96-well plates, allowed to grow in the presence of drug for 6 days before cell growth relative to untreated control wells was determined with a dye assay. Cells were seeded in triplicate or quadruplicate at 3-4,000 per microtitre well in 90 μl of RPMI culture medium/10% foetal calf serum/penicillin, streptomycin mix, treated with 10 μl of drug (prepared in a dilution plate at 10× concentration required), and allowed to grow until the controls were nearly confluent (6 days). SRB: Plates were washed with PBS, fixed with methylated spirits, washed with tap water and stained with 50 μL/well of SRB solution (sulforhodamine, 0.4% in 1% acetic acid), followed by washing with tap water and 1% acetic acid, solubilisation in Tris and absorbance read at 564 nm in an ELISA reader. Data was collected using ELISA plate reader software—SOFTmax PRO3.1.2, then imported into EXCEL. The mean and SD of replicates were calculated as a % of control, after subtraction of the blank value (wells with no cells). A graph was plotted of % control vs dose of agent and IC50 (half maximal inhibitory concentration) values determined. […] The cells were allowed to grow until the controls were nearly confluent after 5-6 days. Plates were then washed with PBS, fixed in ethanol and stained with 50 μL/well of SRB solution (sulforhodamine, 0.4% in 1% acetic acid), followed by washing with 1% acetic acid and solubilisation in Tris. The absorbance was read at 564 nm using an ELISA reader. […] Cambridge University Press). […] The inhibitory data from each mixture was used to determine an IC50 of IC50 value, where the concentrations used were the Multiplying Factor values. In order to determine the actual IC50 contribution of each component in the two-component mixture, the IC50 of IC50 value was multiplied by the IC50 of the individual component. This can then be used to determine the reduction in IC50 contribution (ie, reduction in dose) of the chemotherapeutic agent due to the presence of the steroid saponin in the mixture. A simpler way of determining the reduction in dose is to use the following simple formula: […]

MCF7 cell line = assay: as above; type: cell-based, human; conditions: for Vincristine Dose Reduction: 50:50 IC50 mixture vs vincristine alone, Example 3
Protocol: as §8

HT29 human cells = assay: In vivo tumour volume, HT29 cells subcutaneously introduced into mice, 5-fluorouracil and deltonin; set-up: species or system Balb/c nude female mice; conditions: 5-Fluorouracil 37.5 mg/kg 1 × weekly
Text: 5-Fluorouracil (5FU) is the principal chemotherapeutic drug used in treating colon cancer; it is most commonly co-administered with other chemotherapeutic agents. This study compared the co-administration of 5-fluoruracil and deltonin, with administration of mono-administration of both 5-fluorourcil and deltonin.
72 female Balb/c nude female mice were microchipped, weighed and randomised based on body weight into 8 groups with 9 mice per group. […]
HT29 human […] carcinoma cells were cultured in RPMI1640 cell culture medium, which was supplemented with 10% FBS and penicillin-streptomycin (50 IU/mL final concentration). The cells were harvested by trypsinisation, washed twice in HBSS and counted. The cells were then resuspended in HBSS and adjusted to a final volume containing 2×10^7 cells/mL. For inoculation, the needle was introduced through the skin into the subcutaneous space just below the right shoulder, where 100 μL of cells (2×10^6) were discharged.
When the tumour volumes had reached an average of greater than 200 mm^3, treatment was started (Day 0). Tumour volumes were measured 3-times weekly, and determined according to the formula: V(mm^3)=length×diameter^2×π/6
Treatment was continued for 17 days. The mean tumour volumes for each dosage regime are given in Table 24 and are presented graphically in FIG. 1: […]

[2] = Homo sapiens, 144 h, single agent, Example 2, read-out: IC50
[3] = Homo sapiens, 144 h, Example 3, value used to make up 50:50 IC50 mixtures, read-out: IC50 values used in assay
[4] = single agent, Example 2, read-out: IC50
[5] = Example 3, value used to make up 50:50 IC50 mixtures, read-out: IC50 values used in assay
[6] = Example 4, value used to make up 50:50 IC50 mixtures, read-out: IC50 values used in assay
[7] = Homo sapiens, 144 h, Example 4, value used to make up 50:50 IC50 mixtures, read-out: IC50 values used in assay

CC[C@]1(O)C[C@H]2CN(CCc3c([nH]c4ccccc34)[C@@](C(=O)OC)(c3cc4c(cc3OC)N(C=O)[C@H]3[C@@](O)(C(=O)OC)[C@H](OC(C)=O)[C@]5(CC)C=CCN6CC[C@]43[C@@H]65)C2)C1 [Vincristine]
IC50 ([1]; Homo sapiens): 2.5 nM | IC50 (K562 cell line; [2]): 0.21 nM | IC50 (HT29 cell line; Homo sapiens, HT-29, 144 h): 2.4 nM | IC50 (PC3 cell line; Homo sapiens, PC-3, 144 h): 1.1 nM | IC50 (DU145 cell line; Homo sapiens, DU-145, 144 h): 2.9 nM | IC50 (A549 cell line; [2]): 6 nM | IC50 (LNCap cell line; [3]): 0.5 nM | IC50 (LNCap cell line; [2]): 0.49 nM | IC50 (MCF7 cell line; [3]): 0.5 nM | IC50 (MCF7 cell line; [2]): 0.49 nM

N.N.[Cl][Pt][Cl] [Cisplatin]
IC50 [1]: 800 nM | IC50 (K562 cell line; [4]): 820 nM | IC50 (HT29 cell line): 930 nM | IC50 (PC3 cell line): 1400 nM | IC50 (DU145 cell line): 540 nM | IC50 (A549 cell line; [4]): 1200 nM | IC50 (LNCap cell line; [5]): 800 nM | IC50 (LNCap cell line; [4]): 700 nM | IC50 (MCF7 cell line; [5]): 800 nM | IC50 (MCF7 cell line; [4]): 650 nM

CC(=O)O[C@@]12CO[C@@H]1C[C@H](O)[C@@]1(C)C(=O)[C@H](O)C3=C(C)[C@@H](OC(=O)[C@H](O)[C@@H](NC(=O)OC(C)(C)C)c4ccccc4)C[C@@](O)([C@@H](OC(=O)c4ccccc4)[C@H]21)C3(C)C [Docetaxel]
IC50 ([1]; Homo sapiens): 0.2 nM | IC50 (K562 cell line; [2]): 0.42 nM | IC50 (HT29 cell line; Homo sapiens, HT-29, 144 h): 0.51 nM | IC50 (PC3 cell line; Homo sapiens, PC-3, 144 h): 0.09 nM | IC50 (DU145 cell line; Homo sapiens, DU-145, 144 h): 0.15 nM | IC50 (A549 cell line; [2]): 0.27 nM | IC50 (LNCap cell line; [3]): 0.03 nM | IC50 (LNCap cell line; [2]): 0.026 nM | IC50 (MCF7 cell line; [3]): 0.03 nM | IC50 (MCF7 cell line; [2]): 0.039 nM

O=c1[nH]cc(F)c(=O)[nH]1 [5-Fluorouracil (5FU), 5-Fluorouracil]
Mean tumour volume (HT29 human cells; Day 0): 236 mm^3 | Mean tumour volume (HT29 human cells; Day 2): 280 mm^3 | Mean tumour volume (HT29 human cells; Day 4): 307 mm^3 | Mean tumour volume (HT29 human cells; Day 7): 330 mm^3 | Mean tumour volume (HT29 human cells; Day 9): 432 mm^3 | Mean tumour volume (HT29 human cells; Day 11): 511 mm^3 | Mean tumour volume (HT29 human cells; Day 14): 681 mm^3 | Mean tumour volume (HT29 human cells; Day 16): 676 mm^3 | Mean tumour volume (HT29 human cells; Day 18): 824 mm^3

C[C@@H]1CC[C@@]2(OC1)O[C@H]1C[C@H]3[C@@H]4CC=C5C[C@@H](O[C@@H]6O[C@H](CO)[C@@H](O)[C@H](O)[C@H]6O[C@@H]6O[C@@H](C)[C@H](O)[C@@H](O)[C@H]6O)CC[C@]5(C)[C@H]4CC[C@]3(C)[C@H]1[C@@H]2C [Prosapogenin A, diosgenin Rha2, Glc]
IC50 [1]: 2000 nM | IC50 (K562 cell line; Example 6, value used to make up 50:50 IC50 mixtures, read-out: IC50 values used in assay): 2000 nM | IC50 (A549 cell line; [6]): 2000 nM | Vincristine Dose Reduction (LNCap cell line): effectively zero reduction | IC50 (LNCap cell line; [5]): 2000 nM | Vincristine Dose Reduction (MCF7 cell line): effectively zero reduction | IC50 (MCF7 cell line; [5]): 2000 nM | IC50 (MCF7 cell line; [6]): 2000 nM

C[C@@H]1CC[C@@]2(OC1)O[C@H]1C[C@H]3[C@@H]4CC=C5C[C@@H](O[C@@H]6O[C@H](CO)[C@@H](O[C@@H]7O[C@@H](C)[C@H](O)[C@@H](O)[C@H]7O)[C@H](O)[C@H]6O[C@@H]6O[C@@H](C)[C@H](O)[C@@H](O)[C@H]6O)CC[C@]5(C)[C@H]4CC[C@]3(C)[C@H]1[C@@H]2C [Dioscin, diosgenin Rha2, [Rha4], Glc]
IC50 ([1]; Homo sapiens): 1000 nM | IC50 (K562 cell line; Homo sapiens, 144 h, Example 6, value used to make up 50:50 IC50 mixtures, read-out: IC50 values used in assay): 1000 nM | IC50 (A549 cell line; [7]): 1000 nM | Vincristine Dose Reduction (LNCap cell line): consistent reduction in dosage | IC50 (LNCap cell line; [3]): 1000 nM | Vincristine Dose Reduction (MCF7 cell line): consistent reduction in dosage | IC50 (MCF7 cell line; [3]): 1000 nM

CC(=O)O[C@H]1C(=O)[C@@]2(C)[C@H]([C@H](OC(=O)c3ccccc3)[C@]3(O)C[C@H](OC(=O)[C@H](O)[C@@H](NC(=O)c4ccccc4)c4ccccc4)C(C)=C1C3(C)C)[C@]1(OC(C)=O)CO[C@@H]1C[C@@H]2O [Paclitaxel]
IC50 (K562 cell line; [2]): > 3.3 nM | IC50 (HT29 cell line; Homo sapiens, HT-29, 144 h): > 3.3 nM | IC50 (PC3 cell line; Homo sapiens, PC-3, 144 h): 2.1 nM | IC50 (DU145 cell line; Homo sapiens, DU-145, 144 h): 2.7 nM | IC50 (A549 cell line; [7]): 3 nM | IC50 (A549 cell line; [2]): 3.2 nM | IC50 (LNCap cell line; [2]): 1.2 nM | IC50 (MCF7 cell line; [7]): 1 nM | IC50 (MCF7 cell line; [2]): 1.1 nM
